# Source: a melting point compilation (Tetko et al.; mined from patent text by program, amines drawn as free bases though some values may be those of a salt)
row,SMILES,melting point [°C]
1,CC(=O)OCC1OC(n2cc(C3=C(c4c[nH]c5ncccc45)C(=O)N(COCc4ccccc4)C3=O)c3ccccc32)C(OC(C)=O)C(OC(C)=O)C1OC(C)=O (configuration not stated),115 to 117
2,CC12CC(N3CCC(=O)CC3)C(O)CC1CCC1C2CCC2(C)C(O)C(N3CCCCC3)CC12 (configuration not stated),205 to 206
3,COC(=O)[C@@H](NC(=O)Oc1ccccc1)C(C)C,59.1
4,N#Cc1cccc(Oc2ccnc(Cl)c2)n1,114
5,OC(C(c1cccc(Cl)c1)n1ccnc1)C12CC3CC(CC(C3)C1)C2 (configuration not stated),115
6,Cc1cc(Cc2cnc(NCCSCc3ncccc3Br)[nH]c2=O)cnc1C,105 to 107
7,[N-]=[N+]=NC1(O)CC(n2ccc(N)nc2=O)OC1CO (configuration not stated),174 to 176
8,CCCCC1Cc2c(n(-c3ccc(F)cc3)c3ncccc3c2=O)O1 (configuration not stated),243 to 245
9,Cc1cc(N2CCNCC2)ccn1,93 to 94
10,c1ccc(NC(Nc2ccccc2)Nc2ccccc2)cc1,138 to 139
11,CS(=O)(=O)Nc1ccc(C(O)CCCNCCC(=O)CCC2CCCC2)cc1 (configuration not stated),101 to 102
12,CC(=O)c1ccc(OCCOc2ccc3ccccc3c2)cc1C,128 to 130
13,Cc1cc(Cl)ccc1N=CN(C)SN(C)C=Nc1ccc(Cl)cc1C,124 to 126
14,CC(C)c1nc(CO)n(Cc2ccc([N+](=O)[O-])cc2)c1Sc1cc(Cl)cc(Cl)c1,192 to 194
15,O=C1C(=O)N(CCCN2CCN(C(c3ccccc3)(c3ccccc3)c3ccccc3)CC2)c2ccccc21,145 to 149
16,Cc1ccccc1-c1cccc(C(=O)O)c1,127
17,COC(=O)/C=C/[C@H]1[C@@H](C(=O)OCc2cnc(Oc3ccccc3)s2)C1(C)C,62
18,Cc1ccccc1-c1nc(-c2cccc(Cl)c2)n[nH]1,147 to 148
19,NP(N)(=O)NC(=O)C=Cc1ccccc1,176 to 178

row,SMILES,melting point [°C]
1,Brc1cccc(OCc2ccc3ccccc3c2)c1,109 to 112
2,CCOC(=O)C1=C(C)NC(c2csc(Cl)n2)=NC1c1ccc(F)cc1Cl (configuration not stated),141 to 143
3,O=Cc1ccc2c(c1)OCC(=O)N2,178 to 180
4,CC(C)c1ccc2ncn(/C=C/C(=O)NCCNCc3cccnc3)c(=O)c2c1,121 to 124
5,c1ccc(CN2CC3CC2CN3C2=Nc3ccccc3Oc3ccccc32)cc1 (configuration not stated),70 to 72
6,NC(=O)CON=c1c2nccc3cccc(c32)n2cccc12,252
7,CC(C)(C)NCC(O)c1ccc(N)c(C#N)c1F (configuration not stated),150 to 151
8,CN(c1ccc(Cl)cc1)c1nc(=O)c2cccnc2s1,189 to 190
9,CCCNC1=NS(=O)(=O)c2cc(Cl)sc2N1,246 to 247
10,COc1ccc(CNC(=O)Nc2ccc(CN3C(=O)[C@H]4CCC[C@H]4N(C(=O)CCl)c4ccccc43)cc2)cc1 (relative stereo),225 to 226
11,O=c1[nH]c2cc(F)c(NCC3=CCCOC3)cc2o1,175 to 176
12,CCOC(=O)C(C)Oc1ccc(N(C)c2cnc3cc(Cl)c(Cl)cc3n2)cc1 (configuration not stated),79
13,COc1cc(OC)c(-c2nc(NC(=O)c3cc4cc(C)cc(C)c4n3CC(=O)O)sc2CCC2CCCCC2)cc1Br,221 to 222
14,N#Cc1cccc(-n2c(=O)oc3ccc(-c4ccc(F)cc4F)cc3c2=O)c1,209 to 210
15,O=C(O)CCCCc1nc(NCc2ccc3c(c2)OCO3)c2cc(Cl)sc2n1,130
16,CCOC(=O)C1(C(=O)OCC)CCC2(c3cc(OC)c(OC)cc3CCN2C(=O)CC)C(C2c3cc(OC)c(OC)cc3CCN2CC)C1 (configuration not stated),138
17,CSc1ccc(N(C(C)C)S(=O)(=O)c2ccc(C)cc2)c([N+](=O)[O-])c1,124 to 126
18,Cc1nc(-n2cccc(O)c2=O)sc1C(=O)NCc1ccccc1,225 to 228
19,O=C([C@@H]1CSCN1C(=O)c1ccncc1)N1CCSC1,120 to 123

row,SMILES,melting point [°C]
1,CC(C)(C)Sc1c(CC(C)(C)C(=O)O)n(Cc2ccc(Cl)cc2)c2ccc(OCc3cscn3)cc12,194 to 195
2,CC(=O)C=CC1=C(C)C(=O)CCC1(C)C,50 to 51
3,Cc1nccc2[nH]c(=O)c(N)cc12,283 to 285
4,CCc1cccc(-n2ncc(C(=O)O)c2C(N)=O)c1,176 to 178
5,C=CCN1CC(c2ccc([N+](=O)[O-])cc2F)CCS1(=O)=O (configuration not stated),121
6,CCN1CCc2cc(OC)c(OC)cc2C1C1CC(C(=O)O)CCC12c1cc(OC)c(OC)cc1CCN2CC (configuration not stated),124 to 126
7,O=C1CCCc2cc(I)ccc21,77 to 78
8,CCCCCCCC(=O)Nc1cccc(-c2cc(=O)cc(C(=O)O)o2)c1,242 to 247
9,CCCCc1nc2cccc(C(=O)O)c2n1Cc1ccc(-c2c(-c3nnn[nH]3)oc3ccccc23)cc1,194 to 195
10,Cc1cc(C2CC2)nc(NN)n1,98 to 99
11,COc1ccc(Oc2ccc(S(C)(=O)=O)cc2)cc1,152 to 153
12,COc1nc(Br)cnc1NS(=O)(=O)c1ccccc1-c1ccc(CC(C)C)cc1,154 to 156
13,O=C(O)CCCCNC(=O)c1ccc(Cl)cc1O,140 to 141
14,Nc1ccc(Cl)c(C2SCCS2)c1,60 to 63
15,Cc1ccc(S(=O)(=O)OC[C@H](CNC(=O)c2ccc(Cl)s2)OC(=O)Nc2ccc(N3CCOCC3=O)cc2)cc1,142
16,COc1ccc(C=CC(=O)NNC(=O)CCc2cc(C(C)(C)C)c(O)c(C(C)(C)C)c2)cc1,252 to 254
17,CNC(=NCCSCc1[nH]cnc1C)NS(=O)(=O)c1ccccc1,156 to 158
18,NNC(=O)C(F)(F)c1cccc(Cl)n1,165 to 167
19,Cc1nc2ccc(Nc3nccc(-c4ccc(N5CCNCC5)nc4)n3)cc2[nH]1,245 to 250

# Next, values leading:
row,melting point [°C],SMILES
1,160 to 161,Cc1nc(-n2cnn(CC3CC3(F)F)c2=O)sc1C(=O)NCc1cccnc1 (configuration not stated)
2,218 to 219,CC(=O)c1c(O)cc(O)cc1O
3,65 to 68,CC(=O)SCCC(=O)[C@@H]1CCCC[C@H]1C(=O)O (relative stereo)
4,109 to 110,CC(C)C1(C)NC(c2ccccc2C(F)(F)F)=NC1=O (configuration not stated)
5,154 to 157,Cn1cnc(COc2nc3c(cc2C(C)(C)C)nnn3-c2cc(F)ccc2F)n1
6,156,CCOC(=O)c1cn(CC)c2nc(Cl)ncc2c1=O
7,138,O=C(O)CCCc1cc2nc(Cl)ccc2n1S(=O)(=O)c1ccccc1OC(F)(F)F
8,56 to 59,CC(C)(C)C1OC1C(O)c1ccc(F)cc1 (configuration not stated)
9,152 to 153,COC(=O)COc1cc2c(c(Cl)c1Cl)C(=O)C(c1ccccc1)C2 (configuration not stated)
10,280 to 282,O=C1NC(=O)c2c1c(-c1ccccc1)cc1c2c2cc(O)ccc2n1CCCBr
11,275,NC(=O)CN1C(=O)C(NC(=O)c2cc3ccccc3[nH]2)C(Cc2ccccc2)Sc2ccccc21 (configuration not stated)
12,133 to 135,CC1(C)CC(=O)CC(=O)C1c1ccccc1 (configuration not stated)
13,118 to 120,CCOC(=O)CNC(=O)Oc1cccc2ccc(C)nc12
14,174 to 175,O=[N+]([O-])c1ccc(SCc2cnc3ccccn23)cc1
15,180,Nc1nc2ccc(OC(F)(F)F)c([N+](=O)[O-])c2s1
16,148 to 150,O=C(OCC(O)c1ccccc1)c1ccc(-c2ccc(OCCCCCCO)cc2)cc1 (configuration not stated)
17,112 to 115,CC(C)c1ccc(C(=O)N2CCOCC2)cc1N
18,193 to 194,O=C(CCc1ccc(NC(=O)C(F)(F)F)c([N+](=O)[O-])c1)Nc1ccc(Cl)cc1Cl
19,231,O=C(O)CNc1cc(Cl)ccc1C(=O)O
20,180 to 183,N#Cc1c(N2CCc3ccccc3CC2)nc(COC2CCCCO2)[nH]c1=O (configuration not stated)
21,155 to 175,OC(CNC(c1ccccc1)C(O)c1ccccc1)CNC(c1ccccc1)C(O)c1ccccc1 (configuration not stated)
22,169 to 172,NC(=O)c1sc2nc(N3CCC(NCC(O)c4cc5ccccc5cn4)CC3)cc(C(F)(F)F)c2c1N (configuration not stated)
23,25 to 25.5,CCCC(=Cc1cccs1)[N+](=O)[O-]

row,melting point [°C],SMILES
1,175 to 177,CON=C(C(=O)O)c1nc(NC=O)sc1Cl
2,108 to 110,CCOC(=O)c1cnn2c1NCC=C2c1cccc(C(F)(F)F)c1
3,128,CC(C)c1ccc(N(Cc2cnn(CC(F)(F)F)c2)C(=O)C2CCCc3c(O)cccc32)cn1 (configuration not stated)
4,75.5 to 77.5,O=C1OCC2Cc3cccc(F)c3OC12 (configuration not stated)
5,140 to 141,CCOC(=O)c1csc(NC(c2ccccc2)(c2ccccc2)c2ccccc2)n1
6,94 to 96,CCOC(=O)c1nccn1Cc1ccc(Cl)cc1N
7,121 to 123,O=[N+]([O-])c1ccc(N2C[C@H]3CN(Cc4ccccc4)C[C@H]3C2)cc1
8,233 to 234,COc1cc(Nc2c(C#N)cnc3cc(I)sc23)c(Cl)cc1Cl
9,222 to 224,O=C(Nc1ccc2ccc(-c3ccc(Cl)cc3)nc2n1)c1cccc(Cl)c1
10,209 to 210,CC(O)CNc1c([N+](=O)[O-])cnc2ccccc12 (configuration not stated)
11,148 to 149,CC(C)C[C@H](N)C(=O)NCCNC(=O)OCc1ccccc1
12,128 to 130,COc1ccc2c(c1F)C(=O)OC2=O
13,180,COc1cc(Nc2ccnc(Nc3cc(OC)c(OC)c(OC)c3)n2)cc(OC)c1OC
14,131 to 132,CCOC(=O)c1cccc(C(=O)O)c1
15,130 to 134,CC(C)(C)OC(=O)N(C[C@H](O)COc1ccc(O)cc1)C1CNC1
16,202 to 203,CNC(=O)c1cc(C#N)cc(C)c1N
17,224 to 225,Brc1ccc2c(c1)[nH]c1cc(Br)ccc12
18,57 to 59,C#Cc1ccc(-c2ccccc2)c(C)c1
19,> 300,O=c1[nH]c2ccc(-c3ncc[nH]3)cc2[nH]c1=O
20,229 to 231,O=C(C(=O)N1CCN(c2cccc3[nH]ccc23)CC1)c1c[nH]c2cc(Cl)ccc12
21,112 to 115,Cc1nc2c(N)nc3ccccc3c2n1CCCNC(=O)OC(C)(C)C
22,126 to 129,COC(=O)CCCc1cc2cc(Cl)ccc2n1S(=O)(=O)c1ccc2c(c1)CCC(C)(C)O2
